The source of these data is article PMC5130197 (PLoS ONE, 2016).

In data set [1] the test system is EBOV/Kik (Ebola virus Kikwit variant). It is filed as cell-based.
In data set [2] the test system is EBOV/Mak (Ebola virus Makona variant). The class given is cell-based.
The subject of data set [3] is human MDMs.
The subject of data set [4] is EBOV/Kik (Ebola virus Kikwit variant). The note with it: cited from earlier work.
In data set [5] the test system is EBOV-eGFP. The class given is cell-based, Ebola virus.
Data set [6] deals with Vero E6, Hep G2, HeLa, Huh 7 cells.
For data set [7] the following is noted: both, Hartley, guinea pig, in vivo, po, 60 mg/kg.
For data set [8], the system named is EBOV-eGFP. The note with it: cited from earlier work.
For data set [9], the system named is Ebola virus disease. The note with it: human, in vivo; cited from earlier work.
Data set [10] can be described thus: in vivo. The note with it: Hartley, guinea pig, po, 60 mg/kg; for AUC(0-inf): AUCinf (h·ng/ml); for AUC(0-t): AUClast (h·ng/ml); for Cmax: Cmax (ng/ml).

The structures appear in SMILES notation. “And” between values parts separate entries of the source, which are not always exact repeats. Equal values may be shown once. “Also recorded” adds a separate entry of the source. Where a name gives a salt, the structure may show the parent alone. Read-outs that look alike come from different tables or passages of the source. Some results are limits rather than exact numbers.

In the case of `CN(C)CCOc1ccc(/C(=C(/CCCl)c2ccccc2)c2ccccc2)cc1` [Toremifene, Toremifene citrate], the IC50 in data set [1] (read-out: IC50s (range over cell lines)) is 2.2 to 9.9 µM; in [2] (read-out: IC50), 1.2 ± 0.1 µM; in [2] (read-out: IC50s (range) in MDMs), 2.1 to 4.5 µM; in data set [4] it was ~25 µM and 18.3 µM. The “antiviral activity against EBOV/Mak” value in [2] is “strong antiviral activity”. Further, the “doses at which cytotoxicity increased” value in [3] was ≥ 10 µM.
As usually defined, the IC25 is the concentration needed for an effect of 25%. Broadly, the Tmax is the time from dosing to the highest level. The term AUC(0-inf) denotes total exposure, with the tail of the curve extrapolated. Lower therefore signals low exposure. The AUC(0-t) is the area under the concentration-time curve up to a stated or last time point. A low value points to low exposure. What is called Cmax is the peak of the concentration-time curve. For `Nc1ccn([C@@H]2CS[C@H](CO)O2)c(=O)n1` [Lamivudine], the “antiviral activity against EBOV/Kik” value in [1] is “no detectable antiviral activity”. For the same molecule, the IC50 in data set [1] (read-out: IC50) is > 320 µM. Besides, in data set [2], the anti-EBOV activity result is “No significant anti-EBOV activity”, the “antiviral activity against EBOV/Mak” value is recorded as “did not show antiviral activity; also recorded: did not demonstrate any antiviral activity”, the “antiviral activity against EBOV/Mak infection in MDMs” value is on record as “did not demonstrate any antiviral activity” and the “antiviral activity with extended drug pre-treatment” value is “did not improve”. In addition, the “viral inhibition (maximum achieved)” value in [2] (320 µM) is ≤ 30%. In addition, the IC50 in data set [2] (read-out: IC50) is > 320 µM. The “anti-EBOV activity against EBOV-eGFP” value in data set [5] is recorded as “None of these compounds showed any anti-EBOV activity”. In addition, the cytotoxicity entry in [6] is recorded as “minimal cytotoxicity”. Besides, the IC50 in data set [4] was > 320 µM. Moreover, in data set [7], the “AUCinf higher in male compared with female guinea pigs” value was “about 34%” and the “time of small second peak of plasma concentration” value fell in the range of 4 to 6 h. In data set [8], the concentration for an effect of 25% (IC25) is 43.13 µM and the “inhibition of viral replication (maximum)” value was ≤ 45%. Further, the patients successfully treated in data set [9] is 13 out of 15. The time to peak (Tmax) in [10] (both, time to reach peak plasma concentrations) is ≤ 1 h. In data set [10] (female), this molecule displayed an AUC(0-inf) of 12600 ng·h/mL, an AUC(0-t) of 14600 ng·h/mL and a Cmax of 4110 ng/mL. In addition, the Tmax in data set [10] (female, Tmax (hr)) was determined as 1 h. In addition, in [10] (male), the AUC(0-inf) stood at 16800 ng·h/mL, the area under the curve AUC(0-t) came out at 15500 ng·h/mL and the peak level (Cmax) was 4560 ng/mL. The Tmax in data set [10] (male, Tmax (hr)) came to 1 h.
For the molecule `Cc1cn([C@H]2C[C@H](N=[N+]=[N-])[C@@H](CO)O2)c(=O)[nH]c1=O` [Zidovudine], the “antiviral activity against EBOV/Kik” value in data set [1] was “no detectable antiviral activity”. Further, the IC50 in [1] (read-out: IC50) was > 320 µM. Further, in [2], the “antiviral activity against EBOV/Mak” value is reported as “did not show antiviral activity” and the “antiviral activity against EBOV/Mak infection in MDMs” value was “did not demonstrate any antiviral activity”. In data set [5], the “anti-EBOV activity against EBOV-eGFP” value is listed as “None of these compounds showed any anti-EBOV activity”. Moreover, in data set [6], the cytotoxicity entry is listed as “minimal cytotoxicity”. The IC50 in data set [4] is > 320 µM.
